Source: patent publication US20240245707A1, “COMPOSITIONS FOR TREATING INSOMNIA AND USES THEREOF” (Zhejiang Jiachi Development Pharmaceuticals LTD., priority 2021, published 2024)
Values joined by “and” are separate entries in the source; they are usually repeats but may differ in a detail not shown here. Equal values may be shown once. “Also recorded” adds a separate entry of the source.

What was measured:
[1] = system: rat primary neuronal cells; assay: ATP level of neuronal cells treated with anordrin (ATP assay kit); format: cell-based; conditions: 10 nM anordrin, 24 hours, vs vehicle; FIG. 5
Procedure: See Chikahisa et al., Front Neurol. 2011; 2: 87.
Materials and equipment include cell culture medium, FBS and Charcoal stripped FBS, ATP assay kit (Thermofisher) and rat primary neuronal cells (Wuhan servisebio).
Primary neuronal cells (2×10^6) were grew in medium containing 10% FBS in 6 well plates for 24 hours. Then the medium was replaced with phenol red free medium contain 5% Charcoal stripped FBS for 24 hours. 10 nM anordrin or vechile were added in medium for 24 hours, and then cells were harvested. The fluorescence density of ATP was assayed using ATP assay kit following manufacture's instruction.

[2] = system: postmenopausal women having insomnia; assay: Self-assessment of insomnia with Athens Insomnia Scale (AIS) before and after taking anordrin; format: in vivo, human
Procedure: Insomnia is usually measured using sleep disorder questionnaire (SDQ) such as Pittsburgh sleep quality index (PSQI), Epworth Sleeping Scale or the Athens Insomnia Scale (AIS), or using sleep quality monitor to count sleep dysfunction rating scale (SDRS). AIS is the one of popularly used SEQ. It is measured by assessing eight factors amongst which first five factors are related to nocturnal sleep and last three factors are related to daytime dysfunction. These are rated on a 0-3 scale and the sleep is finally evaluated from the cumulative score of all factors and reported as an individual's sleep outcome. Over the period of time, AIS is considered to be an effective tool in sleep analysis, and it is validated in various countries by testing it on local patients. A cut-off score of at least 6 on the AIS is used to establish the diagnosis of insomnia. See Soldatos C R, Dikeos D G, Paparrigopoulos T J (2002). “The diagnostic validity of the Athens Insomnia Scale”. J Psychosom Res. 55 (3): 263-7.
Individuals who have taken anordrin (less than 1 mg) were self-assessed for the presence and the extent of insomnia before and after they took anordrin. Specifically, thirteen postmenopausal women took anordrin for about two weeks to a few months. Their sleep quality were evaluated with Athens Insomnia Scale (AIS).

[3] = system: postmenopausal women with chronic insomnia; assay: Phase II clinical trial of α-anordrin enteric-coated tablets, Athens Insomnia Scale (AIS) index, preliminary results; format: in vivo, human
Procedure: This Phase II clinical trial uses a randomized, double-blind, parallel-controlled design and is conducted in three clinical trial centers. A total of three drug groups are pre-set which are a) the 0.05 mg/day dosing group, b) the 0.1 mg/day dosing group, and c) the 0.15 mg/day dosing group as well as the placebo group. The drug intervention period is 8 weeks, and the drug intervention is followed up for 4 weeks. Primary efficacy endpoint includes vaginal detachment cell maturity index and dryness in postmenopausal women. Secondary efficacy endpoint includes quality in postmenopausal women, vaginal microecological index, vaginal pH in postmenopausal women, as well as the safety endpoint. The effectiveness and safety of different doses of α-anordrin tablets are preliminarily evaluated.
Group 1 (0.05 mg dose group): daily oral administration of one 0.05 mg α-anordrin enteric-coated tablet. Group 2 (0.1 mg dose group): daily oral administration of one 0.1 mg α-anordrin enteric-coated tablet. Group 3 (0.15 mg dose group): daily oral administration of one 0.15 mg α-anordrin enteric-coated tablet. Group 4: placebo group. […]

C#C[C@@]1(OC(=O)CC)C[C@@H]2CC[C@@H]3[C@H](CC[C@@]4(C)[C@H]3CC[C@]4(C#C)OC(=O)CC)[C@@]2(C)C1 [anordrin, 2α, 17α-diethynyl-A-nor-5α-androstane-2β,17β-diol dipropionate]
ATP level of neuronal cells [1]: significantly increased; also recorded: induces ATP surge | decrease of the average number of AIS ([2]; after vs before treatment, thirteen postmenopausal women): 63% | postmenopausal women having insomnia that exhibited a significant improvement in sleeping ([2]; anordrin at various dosages, Example 1): 100% | numbers of AIS for each patient after treatment (in words) ([2]; thirteen postmenopausal women, FIG. 3 and Table 1): significantly decreased | Average # of AIS after treatment ([2]; thirteen postmenopausal women, average before treatment 17.4, STDEV 1.2, p value <0.0001): 6.3 | AIS number (after treatment) ([3]; one patient per row, 0.05 mg/day oral, before treatment 12-19, preliminary results): 4 and 5 (2×) | sleeping quality after treatment (in words) ([3]; three patients, 0.05 mg/day): significantly improved sleeping quality
